Patent US20250206732A1, “COMPOUNDS AND METHODS FOR THE TARGETED DEGRADATION OF KRAS” (Arvinas Operations, Inc., priority 2022, published 2025)

Molecular target: T1, AsPC-1 HiBiT-KRASG12D (Homo sapiens, UniProt P01116, G12D)
T1 construct: insert the HiBiT tag onto the N-terminus of one or more of the endogenous KRAS alleles; endogenous in cells; host or cells: AsPC-1 (ATCC CRL-1682), CRISPR-Cas9 knock-in clone, one tagged allele
Assay: HiBiT degradation assay (G12D), AsPC-1 HiBiT-KRASG12D cells
Type: cell-based
Settings: 24 hours treatment; for Dmax: ASPC1, AsPC-1 HiBiT-KRASG12D cells, maximum degradation observed; for DC50: AsPC-1 HiBiT-KRASG12D cells, HiBiT luminescence
In short: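 Luminescence read-out of HiBiT-tagged endogenous KRASG12D in AsPC-1 cells after 24 h compound exposure at 37° C; lytic Nano-Glo HiBiT detection, 45 min at room temperature. A parallel alamar blue read (4 h) checked viability, normalized to DMSO-only controls.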

T1 sequence (P01116 1-188 isoform P01116-2 G12D): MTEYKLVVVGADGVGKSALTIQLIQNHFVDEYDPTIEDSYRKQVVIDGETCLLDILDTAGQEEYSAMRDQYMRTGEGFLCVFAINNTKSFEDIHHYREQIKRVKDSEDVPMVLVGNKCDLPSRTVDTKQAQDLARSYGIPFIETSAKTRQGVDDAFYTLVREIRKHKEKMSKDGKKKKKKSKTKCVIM

`CCc1cccc2cc(O)cc(-c3ncc4c(N5CC6CCC(C5)N6)nc(OC[C@]56CCCN5[C@@H](COC(=O)NCc5cc([C@@H](C(=O)N7C[C@H](O)C[C@H]7C(=O)N[C@@H](C)c7ccc(-c8scnc8C)cc7)C(C)C)on5)CC6)nc4c3F)c12` [Compound 103, [(3R,7aR)-7a-{[(4-{3,8-diazabicyclo[3.2.1]octan-3-yl}-7-(8-ethyl-3-hydroxynaphthalen-1-yl)-8-fluoropyrido[4,3-d]pyrimidin-2-yl)oxy]methyl}-hexahydro-1H-pyrrolizin-3-yl]methyl N-({5-[(2S)-1-[(2S,4R)-4-hydroxy-2-{[(1S)-1-[4-(4-methyl-1,3-thiazol-5-yl)phenyl]ethyl]carbamoyl}pyrrolidin-1-yl]-3-methyl-1-oxobutan-2-yl]-1,2-oxazol-3-yl}methyl) carbamate] was tested, and the Dmax was 20 to 60% and the DC50 was 1000 to 3000 nM.
Work on `CCc1cccc2cc(O)cc(-c3ncc4c(N5CC6CCC(C5)N6)nc(OC[C@@]56CCCN5[C@H](COC(=O)NCc5cc([C@H](C(=O)N7C[C@H](O)C[C@H]7C(=O)N[C@@H](C)c7ccc(-c8scnc8C)cc7)C(C)C)on5)CC6)nc4c3F)c12` [Compound 104, [(3S,7aS)-7a-{[(4-{3,8-diazabicyclo[3.2.1]octan-3-yl}-7-(8-ethyl-3-hydroxynaphthalen-1-yl)-8-fluoropyrido[4,3-d]pyrimidin-2-yl)oxy]methyl}-hexahydro-1H-pyrrolizin-3-yl]methyl N-({5-[(2R)-1-[(2S,4R)-4-hydroxy-2-{[(1S)-1-[4-(4-methyl-1,3-thiazol-5-yl)phenyl]ethyl]carbamoyl}pyrrolidin-1-yl]-3-methyl-1-oxobutan-2-yl]-1,2-oxazol-3-yl}methyl) carbamate] yielded a Dmax of 80 to 100% and a DC50 of less than 600 nM.
Compound `CCc1cccc2cc(O)cc(-c3ncc4c(N5CC6CCC(C5)N6)nc(OC[C@]56CCCN5[C@H](COC(=O)N5CCN(c7cc([C@H](C(=O)N8C[C@H](O)C[C@H]8C(=O)N[C@@H](C)c8ccc(-c9scnc9C)cc8)C(C)C)on7)CC5)CC6)nc4c3F)c12` [Compound 105, [(3S,7aR)-7a-{[(4-{3,8-diazabicyclo[3.2.1]octan-3-yl}-7-(8-ethyl-3-hydroxynaphthalen-1-yl)-8-fluoropyrido[4,3-d]pyrimidin-2-yl)oxy]methyl}-hexahydro-1H-pyrrolizin-3-yl]methyl 4-{5-[(2R)-1-[(2S,4R)-4-hydroxy-2-{[(1S)-1-[4-(4-methyl-1,3-thiazol-5-yl)phenyl]ethyl]carbamoyl}pyrrolidin-1-yl]-3-methyl-1-oxobutan-2-yl]-1,2-oxazol-3-yl}piperazine-1-carboxylate] has a Dmax of 80 to 100% and a DC50 of less than 600 nM.
For `CCc1cccc2cc(O)cc(-c3ncc4c(N5CC6CCC(C5)N6)nc(OC[C@@]56CCCN5[C@@H](COC(=O)N5CCN(c7cc([C@H](C(=O)N8C[C@H](O)C[C@H]8C(=O)N[C@@H](C)c8ccc(-c9scnc9C)cc8)C(C)C)on7)CC5)CC6)nc4c3F)c12` [Compound 106, [(3R,7aS)-7a-{[(4-{3,8-diazabicyclo[3.2.1]octan-3-yl}-7-(8-ethyl-3-hydroxynaphthalen-1-yl)-8-fluoropyrido[4,3-d]pyrimidin-2-yl)oxy]methyl}-hexahydro-1H-pyrrolizin-3-yl]methyl 4-{5-[(2R)-1-[(2S,4R)-4-hydroxy-2-{[(1S)-1-[4-(4-methyl-1,3-thiazol-5-yl)phenyl]ethyl]carbamoyl}pyrrolidin-1-yl]-3-methyl-1-oxobutan-2-yl]-1,2-oxazol-3-yl}piperazine-1-carboxylate], the Dmax was 80 to 100% and the DC50 was less than 600 nM.
`CCc1cccc2cc(O)cc(-c3ncc4c(N5CC6CCC(C5)N6)nc(OC[C@]56CCCN5[C@H](CN5CCC(COc7cc([C@H](C(=O)N8C[C@H](O)C[C@H]8C(=O)N[C@@H](C)c8ccc(-c9scnc9C)cc8)C(C)C)on7)CC5)CC6)nc4c3F)c12` [Compound 111, (2S,4R)-1-[(2R)-2-{3-[(1-{[(3S,7aR)-7a-{[(4-{3,8-diazabicyclo[3.2.1]octan-3-yl}-7-(8-ethyl-3-hydroxynaphthalen-1-yl)-8-fluoropyrido[4,3-d]pyrimidin-2-yl)oxy]methyl}-hexahydro-1H-pyrrolizin-3-yl]methyl}piperidin-4-yl)methoxy]-1,2-oxazol-5-yl}-3-methylbutanoyl]-4-hydroxy-N-[(1S)-1-[4-(4-methyl-1,3-thiazol-5-yl)phenyl]ethyl]pyrrolidine-2-carboxamide] showed a Dmax of 80 to 100% and a DC50 of less than 600 nM.
With `CCc1cccc2cc(O)cc(-c3ncc4c(N5CC6CCC(C5)N6)nc(OC[C@@]56CCCN5[C@H](COC(=O)N5CC7(C5)CN(c5cc([C@H](C(=O)N8C[C@H](O)C[C@H]8C(=O)N[C@@H](C)c8ccc(-c9scnc9C)cc8)C(C)C)on5)C7)CC6)nc4c3F)c12` [Compound 112, [(3S,7aS)-7a-{[(4-{3,8-diazabicyclo[3.2.1]octan-3-yl}-7-(8-ethyl-3-hydroxynaphthalen-1-yl)-8-fluoropyrido[4,3-d]pyrimidin-2-yl)oxy]methyl}-hexahydro-1H-pyrrolizin-3-yl]methyl 6-{5-[(2R)-1-[(2S,4R)-4-hydroxy-2-{[(1S)-1-[4-(4-methyl-1,3-thiazol-5-yl)phenyl]ethyl]carbamoyl}pyrrolidin-1-yl]-3-methyl-1-oxobutan-2-yl]-1,2-oxazol-3-yl}-2,6-diazaspiro[3.3]heptane-2-carboxylate] the Dmax was 80 to 100% and the DC50 was less than 600 nM.
Work on `CCc1cccc2cc(O)cc(-c3ncc4c(N5CC6CCC(C5)N6)nc(OC[C@@]56CCCN5[C@H](COC(=O)N5CC7(C5)CN(c5cc([C@@H](C(=O)N8C[C@H](O)C[C@H]8C(=O)N[C@@H](C)c8ccc(-c9scnc9C)cc8)C(C)C)on5)C7)CC6)nc4c3F)c12` [Compound 113, [(3S,7aS)-7a-{[(4-{3,8-diazabicyclo[3.2.1]octan-3-yl}-7-(8-ethyl-3-hydroxynaphthalen-1-yl)-8-fluoropyrido[4,3-d]pyrimidin-2-yl)oxy]methyl}-hexahydro-1H-pyrrolizin-3-yl]methyl 6-{5-[(2S)-1-[(2S,4R)-4-hydroxy-2-{[(1S)-1-[4-(4-methyl-1,3-thiazol-5-yl)phenyl]ethyl]carbamoyl}pyrrolidin-1-yl]-3-methyl-1-oxobutan-2-yl]-1,2-oxazol-3-yl}-2,6-diazaspiro[3.3]heptane-2-carboxylate] yielded a Dmax of 20 to 60% and a DC50 of less than 600 nM.
`CCc1cccc2cc(O)cc(-c3ncc4c(N5CC6CCC(C5)N6)nc(OC[C@@]56CCCN5[C@H](COC(=O)N5CC(COc7cc([C@H](C(=O)N8C[C@H](O)C[C@H]8C(=O)N[C@@H](C)c8ccc(-c9scnc9C)cc8)C(C)C)on7)C5)CC6)nc4c3F)c12` [Compound 114, [(3S,7aS)-7a-{[(4-{3,8-diazabicyclo[3.2.1]octan-3-yl}-7-(8-ethyl-3-hydroxynaphthalen-1-yl)-8-fluoropyrido[4,3-d]pyrimidin-2-yl)oxy]methyl}-hexahydro-1H-pyrrolizin-3-yl]methyl 3-[({5-[(2R)-1-[(2S,4R)-4-hydroxy-2-{[(1S)-1-[4-(4-methyl-1,3-thiazol-5-yl)phenyl]ethyl]carbamoyl}pyrrolidin-1-yl]-3-methyl-1-oxobutan-2-yl]-1,2-oxazol-3-yl}oxy)methyl]azetidine-1-carboxylate] gave a Dmax of 80 to 100% and a DC50 of less than 600 nM.
With `CCc1cccc2cc(O)cc(-c3ncc4c(N5CC6CCC(C5)N6)nc(OC[C@@]56CCCN5[C@H](COC(=O)N5CC(COc7cc([C@@H](C(=O)N8C[C@H](O)C[C@H]8C(=O)N[C@@H](C)c8ccc(-c9scnc9C)cc8)C(C)C)on7)C5)CC6)nc4c3F)c12` [Compound 115, [(3S,7aS)-7a-{[(4-{3,8-diazabicyclo[3.2.1]octan-3-yl}-7-(8-ethyl-3-hydroxynaphthalen-1-yl)-8-fluoropyrido[4,3-d]pyrimidin-2-yl)oxy]methyl}-hexahydro-1H-pyrrolizin-3-yl]methyl 3-[({5-[(2S)-1-[(2S,4R)-4-hydroxy-2-{[(1S)-1-[4-(4-methyl-1,3-thiazol-5-yl)phenyl]ethyl]carbamoyl}pyrrolidin-1-yl]-3-methyl-1-oxobutan-2-yl]-1,2-oxazol-3-yl}oxy)methyl]azetidine-1-carboxylate] the Dmax was 20 to 60% and the DC50 was 600 to 1000 nM.
Compound `CCc1cccc2cc(O)cc(-c3ncc4c(N5CC6CCC(C5)N6)nc(OC[C@]56CCCN5[C@H](COC(=O)N5CCC(Oc7cc([C@H](C(=O)N8C[C@H](O)C[C@H]8C(=O)N[C@@H](C)c8ccc(-c9scnc9C)cc8)C(C)C)on7)CC5)CC6)nc4c3F)c12` [Compound 116, [(3S,7aR)-7a-{[(4-{3,8-diazabicyclo[3.2.1]octan-3-yl}-7-(8-ethyl-3-hydroxynaphthalen-1-yl)-8-fluoropyrido[4,3-d]pyrimidin-2-yl)oxy]methyl}-hexahydro-1H-pyrrolizin-3-yl]methyl 4-({5-[(2R)-1-[(2S,4R)-4-hydroxy-2-{[(1S)-1-[4-(4-methyl-1,3-thiazol-5-yl)phenyl]ethyl]carbamoyl}pyrrolidin-1-yl]-3-methyl-1-oxobutan-2-yl]-1,2-oxazol-3-yl}oxy)piperidine-1-carboxylate] has a Dmax of 80 to 100% and a DC50 of less than 600 nM.
Work on `CCc1cccc2cc(O)cc(-c3ncc4c(N5CC6CCC(C5)N6)nc(OC[C@@]56CCCN5[C@H](COC(=O)N5CCC(Oc7cc([C@H](C(=O)N8C[C@H](O)C[C@H]8C(=O)N[C@@H](C)c8ccc(-c9scnc9C)cc8)C(C)C)on7)CC5)CC6)nc4c3F)c12` [Compound 117, [(3S,7aS)-7a-{[(4-{3,8-diazabicyclo[3.2.1]octan-3-yl}-7-(8-ethyl-3-hydroxynaphthalen-1-yl)-8-fluoropyrido[4,3-d]pyrimidin-2-yl)oxy]methyl}-hexahydro-1H-pyrrolizin-3-yl]methyl 4-({5-[(2R)-1-[(2S,4R)-4-hydroxy-2-{[(1S)-1-[4-(4-methyl-1,3-thiazol-5-yl)phenyl]ethyl]carbamoyl}pyrrolidin-1-yl]-3-methyl-1-oxobutan-2-yl]-1,2-oxazol-3-yl}oxy)piperidine-1-carboxylate] yielded a Dmax of 80 to 100% and a DC50 of less than 600 nM.
